# According to patent publication US10597388B2, “Pyridazinone herbicides” (FMC CORPORATION, priority 2014, dated 2020):
# How the values were obtained:
# Assay type in all cases: in vivo
# kochia (Kochia scoparia) = test: Test C greenhouse herbicide test, postemergence; conditions: for Plant response rating, Kochia: scale 0 to 100 (0 no effect, 100 complete control)
# In short: (§1)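 Visual injury scores (0–100, where 100 means complete control) were assigned 13 to 15 d after postemergence application, by comparison with untreated plants. Treated seedlings stood 2 to 18 cm tall, at the 1- to 4-leaf stage.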
# [1] = tested on: oat, wild (wild oat, Avena fatua); test: Test C greenhouse herbicide test, postemergence; conditions: for Plant response rating, Oat, Wild: scale 0 to 100 (0 no effect, 100 complete control)
# In short: as §1
# corn (Zea mays) = test: Test C greenhouse herbicide test, pre- and postemergence; conditions: for Plant response rating, Corn: scale 0 to 100 (0 no effect, 100 complete control)
# In short: (§2)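 Visual ratings on a 0 to 100 scale (0 = no effect, 100 = complete control) versus untreated controls, scored 13–15 d after treatment. Soil-applied preemergence to seeded loam/sand; foliar postemergence to 1- to 4-leaf plants (2–18 cm) in peat-vermiculite mix; compounds formulated in solvent plus surfactant.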
# [2] = tested on: morningglory (Ipomoea coccinea); test: as above; conditions: for Plant response rating, Morningglory: scale 0 to 100 (0 no effect, 100 complete control)
# In short: as §2
# [3] = tested on: crabgrass, large (large crabgrass, Digitaria sanguinalis); test: as above; conditions: for Plant response rating, Crabgrass, Large: scale 0 to 100 (0 no effect, 100 complete control)
# In short: as §2
# [4] = tested on: johnsongrass (Sorghum halepense); test: as above; conditions: for Plant response rating, Johnsongrass: scale 0 to 100 (0 no effect, 100 complete control)
# In short: as §2
# [5] = tested on: pigweed (Amaranthus retroflexus); test: as above; conditions: for Plant response rating, Pigweed: scale 0 to 100 (0 no effect, 100 complete control)
# In short: as §2
# [6] = tested on: blackgrass (Alopecurus myosuroides); test: as above; conditions: for Plant response rating, Blackgrass: scale 0 to 100 (0 no effect, 100 complete control)
# In short: as §2
# [7] = tested on: velvetleaf (Abutilon theophrasti); test: as above; conditions: for Plant response rating, Velvetleaf: scale 0 to 100 (0 no effect, 100 complete control)
# In short: as §2
# soybean (Glycine max) = test: as above; conditions: for Plant response rating, Soybean: scale 0 to 100 (0 no effect, 100 complete control)
# In short: as §2
# [8] = tested on: galium (catchweed bedstraw, Galium aparine); test: as above; conditions: for Plant response rating, Galium: scale 0 to 100 (0 no effect, 100 complete control)
# In short: as §2
# [9] = tested on: oilseed rape (Brassica napus); test: as above; conditions: for Plant response rating, Oilseed Rape: scale 0 to 100 (0 no effect, 100 complete control)
# In short: as §2
# [10] = tested on: foxtail, giant (giant foxtail, Setaria faberii); test: as above; conditions: for Plant response rating, Foxtail, Giant: scale 0 to 100 (0 no effect, 100 complete control)
# In short: as §2
# [11] = tested on: ragweed (common ragweed, Ambrosia elatior); test: as above; conditions: for Plant response rating, Ragweed: scale 0 to 100 (0 no effect, 100 complete control)
# In short: as §2
# [12] = tested on: wheat (winter wheat, Triticum aestivum); test: as above; conditions: for Plant response rating, Wheat: scale 0 to 100 (0 no effect, 100 complete control)
# In short: as §2
# [13] = tested on: waterhemp (common waterhemp, Amaranthus rudis); test: as above; conditions: for Plant response rating, Waterhemp: scale 0 to 100 (0 no effect, 100 complete control)
# In short: as §2
# [14] = tested on: barnyardgrass (Echinochloa crus-galli); test: as above; conditions: Postemergence
# In short: as §2
# [15] = Postemergence, 62 g ai/ha, 0 to 100 scale (0 no effect, 100 complete control)
# [16] = postemergence, 125 g ai/ha, scale 0 to 100, 0 no effect, 100 complete control
smiles,measurement,setting,value
COC(=O)Oc1cnn(C)c(=O)c1-c1c(C)ccc2ccccc12 [Compound 143],"Plant response rating, Kochia","kochia (Kochia scoparia); Postemergence, 16 g ai/ha",0
same,"Plant response rating, Kochia","kochia (Kochia scoparia); Postemergence, 31 g ai/ha",30
same,Kochia plant response rating,kochia (Kochia scoparia); [15],60
same,Kochia plant response rating,kochia (Kochia scoparia); [16],60
same,"Plant response rating, Oat, Wild","[1]; Postemergence, 16 g ai/ha",30
same,"Plant response rating, Oat, Wild","[1]; Postemergence, 31 g ai/ha",40
same,"Oat, Wild plant response rating",[1]; [15],55
same,"Oat, Wild plant response rating",[1]; [16],60
same,"Plant response rating, Corn","corn (Zea mays); Postemergence, 16 g ai/ha",0
same,"Plant response rating, Corn","corn (Zea mays); Postemergence, 31 g ai/ha",5
same,Corn plant response rating,corn (Zea mays); [15],0
same,Corn plant response rating,corn (Zea mays); [16],5
same,"Plant response rating, Morningglory","[2]; Postemergence, 16 g ai/ha",30
same,"Plant response rating, Morningglory","[2]; Postemergence, 31 g ai/ha",50
same,Morningglory plant response rating,[2]; [15],65
same,Morningglory plant response rating,[2]; [16],70
same,"Plant response rating, Crabgrass, Large","[3]; Postemergence, 16 g ai/ha",5
same,"Plant response rating, Crabgrass, Large","[3]; Postemergence, 31 g ai/ha",10
same,"Crabgrass, Large plant response rating",[3]; [15],10
same,"Crabgrass, Large plant response rating",[3]; [16],30
same,"Plant response rating, Johnsongrass","[4]; Postemergence, 16 g ai/ha",10
same,"Plant response rating, Johnsongrass","[4]; Postemergence, 31 g ai/ha",10
same,Johnsongrass plant response rating,[4]; [15],25
same,Johnsongrass plant response rating,[4]; [16],20
same,"Plant response rating, Pigweed","[5]; Postemergence, 16 g ai/ha",50
same,"Plant response rating, Pigweed","[5]; Postemergence, 31 g ai/ha",50
same,Pigweed plant response rating,[5]; [15],65
same,Pigweed plant response rating,[5]; [16],75
same,"Plant response rating, Blackgrass","[6]; Postemergence, 16 g ai/ha",0
same,"Plant response rating, Blackgrass","[6]; Postemergence, 31 g ai/ha",5
same,Blackgrass plant response rating,[6]; [15],5
same,Blackgrass plant response rating,[6]; [16],20
same,"Plant response rating, Velvetleaf","[7]; Postemergence, 16 g ai/ha",30
same,"Plant response rating, Velvetleaf","[7]; Postemergence, 31 g ai/ha",20
same,Velvetleaf plant response rating,[7]; [15],25
same,Velvetleaf plant response rating,[7]; [16],50
same,"Plant response rating, Soybean","soybean (Glycine max); Postemergence, 16 g ai/ha",0
same,"Plant response rating, Soybean","soybean (Glycine max); Postemergence, 31 g ai/ha",0
same,Soybean plant response rating,soybean (Glycine max); [15],15
same,Soybean plant response rating,soybean (Glycine max); [16],20
same,"Plant response rating, Galium","[8]; Postemergence, 16 g ai/ha",60
same,"Plant response rating, Galium","[8]; Postemergence, 31 g ai/ha",65
same,Galium plant response rating,[8]; [15],90
same,Galium plant response rating,[8]; [16],90
same,"Plant response rating, Oilseed Rape","[9]; Postemergence, 16 g ai/ha",60
same,"Plant response rating, Oilseed Rape","[9]; Postemergence, 31 g ai/ha",0
same,Oilseed Rape plant response rating,[9]; [15],0
same,Oilseed Rape plant response rating,[9]; [16],5
same,"Plant response rating, Foxtail, Giant","[10]; Postemergence, 16 g ai/ha",5
same,"Plant response rating, Foxtail, Giant","[10]; Postemergence, 31 g ai/ha",5
same,"Foxtail, Giant plant response rating",[10]; [15],5
same,"Foxtail, Giant plant response rating",[10]; [16],20
same,"Plant response rating, Ragweed","[11]; Postemergence, 16 g ai/ha",0
same,"Plant response rating, Ragweed","[11]; Postemergence, 31 g ai/ha",0
same,Ragweed plant response rating,[11]; [15],30
same,Ragweed plant response rating,[11]; [16],70
same,"Plant response rating, Wheat","[12]; Postemergence, 16 g ai/ha",0
same,"Plant response rating, Wheat","[12]; Postemergence, 31 g ai/ha",5
same,Wheat plant response rating,[12]; [15],35
same,Wheat plant response rating,[12]; [16],15
same,"Plant response rating, Waterhemp","[13]; Postemergence, 16 g ai/ha",25
same,"Plant response rating, Waterhemp","[13]; Postemergence, 31 g ai/ha",40
same,Waterhemp plant response rating,[13]; [15],55
same,Waterhemp plant response rating,[13]; [16],90
same,"Plant response rating, Barnyardgrass","[14]; 16 g ai/ha, scale 0 to 100 (0 no effect, 100 complete control)",15
same,"Plant response rating, Barnyardgrass","[14]; 31 g ai/ha, scale 0 to 100 (0 no effect, 100 complete control)",20
same,Barnyardgrass plant response rating,"[14]; 62 g ai/ha, 0 to 100 scale (0 no effect, 100 complete control)",25
same,"Plant response rating, Barnyardgrass","[14]; 125 g ai/ha, scale 0 to 100, 0 is no effect, 100 is complete control",30
